Each structure is given as a SMILES string. Read-outs that look alike come from different tables or passages of the source.

Eleven molecules from patent US20240101568A1, “NOVEL BENZAZEPINE SPIRO DERIVATIVE” (SHANGHAI JEMINCARE PHARMACEUTICAL CO., LTD, priority 2020, published 2024) can be followed below.

Data set [1] has as its target T1, human vasopressin receptor V2R (Homo sapiens, UniProt P30518).
T1 construct: host or cells: HeLa (lentivirus infection, puromycin selection)
The data set is described as follows: IC50 assay for inhibition of vasopressin-induced V2R activation (cAMP increase, HTRF) in HeLa-V2R cells. The class given is cell-based. An excerpt:
Experimental Example 1: IC50 Assay for Inhibition of Vasopressin-Induced Vasopressin Receptor V2R Activation by Compounds
Hela cell line stably expressing the human vasopressin receptor V2R (HeLa-V2R): it was constructed by Shanghai Jikai Gene Chemical Technology Co. Ltd. using lentivirus infection method and stably expressed human V2R as verified by qPCR.
DMEM cell culture medium: brand: Gibco, code: 11995065; fetal bovine serum: brand: Jitai, article No: FND500; 0.25% Trypsin: brand: Cibco, code: 25200072; Puromycin Dihydrochloride: brand: Gibco, code: A1113803; cAMP-GS HIRANGE KIT: brand: Cisbio, code: 62AM6PEC; IBMX: brand: Sigma, code: i5879; vasopressin AVP: Ji'er Biochemical (Shanghai) Co. Ltd.
Hela-V2R cells were cultured in a DMEM medium supplemented with 10% fetal bovine serum at 37° C. with 5% CO2 and continuously selected for V2R-expressing cells by adding 2 μg/mL puromycin. On the day of the experiment, cells were trypsinized, washed twice with stimulation buffer from the cAMP-GS HIRANGE kit, resuspended, and counted to 1.6×10^6 cells/ml, and IBMX was added to a final concentration of 0.5 mM. 5 μL of cell suspension/well was transferred to a 384-well plate and 2.5 μL of test compound or DMSO (minimum Min, maximum Max control) was added at various concentrations (10 μM in a 3-fold dilution, 10 concentration gradients) to the corresponding wells. After 30 minutes of incubation at room temperature, 2.5 μL vasopressin AVP solution was added to a final concentration of 2.25 nM to the test compound wells and 2.5 μL stimulation buffer to the minimum wells and incubated for 60 minutes at 25 C. Simultaneously cAMP standard sample (3-fold dilution from 5.6 μM, 10 concentration points) was prepared, and 10 μL of cAMP standard sample was transferred to corresponding well of a 384-well plate. The cAMP-d2 fluorescence and anti-cAMP antibody probes provided in the kit were diluted 20-fold with lysis buffer in the cAMP-GS HIRANGE kit, 5 μL of each was taken and added into each well of the 384-well plate in turn, mixed well with simple centrifugation performed, and incubated at 25° C. for 2 hours and then detect. Sample detection: fluorescence intensity was measured at 615 nm and 665 nm using the HTRF method in the Envision plate reader. Two duplicate wells were made for each sample to be tested, and 32 duplicate wells were made for Min and Max respectively.
The fluorescence intensity ratio FI665/615 at the wavelengths of 665 nm and 615 nm was calculated for each well sample. The standard curve was obtained by fitting the “log(inhibitor) vs response−variable slope (four parameters)” model in Prism 8.0 software with the logarithm of standard concentration as X and FI665/615X1000 as Y value. With the test well F1665/615X1000 as a Y value, the cAMP concentration corresponding to each sample was calculated according to the above standard curve in Prism 8.0 software.
The % Inhibition (inhibition percentage) was calculated as follows:
% inhibition=(Cmax−Ccmpd)/(Cmax−Cmm)×100
Where Cmax is the average calculated cAMP concentration in all maximum wells; Cmm is the average calculated cAMP concentration in all […]; Ccmpd is the calculated cAMP concentration of the test compound.
IC50s were calculated by non-linear regression using the “log(inhibitor) vs response−variable slope (four parameters)” model in Prism 8.0 software with % Inhibition (inhibition percentage) as Y value and log value of compound concentration as X, where Y=Bottom+(Top−Bottom)/(1+10^((Log IC50−X)*Hill Slope)).
For orientation: TR-FRET usually uses a lanthanide donor and a delayed reading to cut background.

Data set [2] can be described thus: in vivo. On the set-up: species or system mice. On the procedure:
Experimental Example 2: In Vivo Pharmacokinetic Experiments with Compounds of the Disclosure
This study evaluated in vivo pharmacokinetics in mice by intravenous and oral administration.
Experimental methods and conditions: male CD1 mice, aged 6-8 weeks, had free access to drinking water and were given a single intravenous injection of test compound 1 mg/Kg (vehicle 5% DMSO/10% Solutol/85% Saline), 5 min, 15 min, 30 min, 1 hr, 2 hr, 4 hr, 8 hr, 24 hr or oral gavage administration of 10 mg/kg (vehicle 5% DMSO/10% Solutol/85% Saline) after administration. Orbital blood was collected at 15 min, 30 min, 1 hr, 2 hr, 4 hr, 6 hr, 8 hr, and 24 hr after administration. No less than 50 μL of each sample was collected. Heparin sodium was used for anticoagulation. After collection, the sample was placed on ice, and the plasma was separated and tested within 1 hour. Plasma concentrations were determined by liquid-phase tandem mass spectrometry (LC/MS/MS). Pharmacokinetic parameters were calculated using Phoenix WinNonlin software. The results are shown in Tables 2 and 3 with Tofapriptan as control 1.

Data set [3] concerns LLC-PK1 cells. Put plainly: Compound proliferation inhibition assay on LLC-PK1 cells (vasopressin-induced proliferation). The class given is cell-based, Porcine. The following applies: AVP 10 nM, verapamil 5 μM, 48 hr, FIG. 1. An excerpt: Experimental Example 3: Compound Proliferation Inhibition Assay on LLC-PK1 Cells
(1) Cell • Porcine kidney epithelial cells LLC-PK1: purchased from ATCC, Cat #CL-101
(2) Reagents: • Medium 199, Gibco (Cat #11150059) • Fetal Bovine Serum (FBS), Australia, Jitai (Cat #FND500) • Trypsin-EDTA (0.25%), phenol red, Gibco (Cat #25200072) • PBS, pH 7.4, Gibco (Cat #10010031) • DMSO (Dimethyl Sulfoxide), Sigma (Cat #D8418) • Poly-D-lysine, Gibco (Cat #A3890401) • Vasopressin AVP: Ji'er Biochemical Co. Ltd. Customization • Verapamil hydrochloride, MCE (Cat #HY-A0064) • AlamarBlue™ HS Cell Viability Reagent, Invitrogen (Cat #A50100) […]
LLC-PK1 cells were cultured in M199 medium supplemented with 10% fetal bovine serum at 37° C. with 5% CO2. […] LLC-PK1 cells were trypsinized, resuspended in serum-free M199 after centrifugation, counted, diluted to a cell suspension of 1×10^5/mL in serum-free M199 culture medium, and FBS was added to a final concentration of 1%. […] On the fifth day, the culture solution was carefully suctioned away, the cells were washed once with 200 μL PBS, 90 μL of M199 serum-free culture solution was carefully added, then 10 μL Alamarblue reagent was added, and the mixture was centrifuged at 300 rpm for 1 min, incubated at 37° C. for 2 h, and then detected. […]
Data quality control: S/B, i.e., Max well average/Min well average, is calculated and […] is considered QC pass.

Setting [4] is: Human V2R Hela-Stable cell line OE2, AVP 2.25 nM, read-out: IC50 (nM), inhibition of the cAMP increase.

T1 sequence (P30518 whole entry): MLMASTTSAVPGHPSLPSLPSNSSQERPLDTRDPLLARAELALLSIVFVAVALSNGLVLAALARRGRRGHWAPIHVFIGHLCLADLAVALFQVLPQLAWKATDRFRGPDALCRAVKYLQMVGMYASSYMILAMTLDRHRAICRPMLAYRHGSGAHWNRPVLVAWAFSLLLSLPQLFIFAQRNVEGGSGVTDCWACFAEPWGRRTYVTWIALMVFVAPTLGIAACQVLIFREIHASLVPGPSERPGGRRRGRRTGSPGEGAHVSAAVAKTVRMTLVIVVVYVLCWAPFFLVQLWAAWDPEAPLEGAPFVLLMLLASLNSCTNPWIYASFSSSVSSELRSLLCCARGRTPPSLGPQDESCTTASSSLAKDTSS

As for `Cc1ccccc1C(=O)Nc1ccc(C(=O)N2CCCC3(CN3)c3cc(Cl)ccc32)cn1` (centres unmarked) [Compound 4], the IC50 (in general, the concentration that inhibits the measured activity by half) in data set [1] (setting [4]) was 3.14 nM.

On to `Cc1ccccc1C(=O)Nc1ccc(C(=O)N2CCC(F)(F)C3(CN3)c3cc(Cl)ccc32)c(C)c1` (centres unmarked) [Compound 2], for which, in data set [1] (setting [4]), the half-inhibitory concentration (IC50) was 9.35 nM.

For `Cc1ccccc1C(=O)Nc1ccc(C(=O)N2CCCC3(CC3)c3cc(Cl)ccc32)c(C)c1` [Compound 16], the IC50 in data set [1] (setting [4]) amounted to 11.2 nM.

In the case of `Cc1cc(NC(=O)c2ccccc2Cl)ccc1C(=O)N1CCCC2(CN2)c2cc(Cl)ccc21` (centres unmarked) [Compound 8], the concentration for half-maximal inhibition (IC50) in data set [1] (setting [4]) stood at 5.01 nM.

On to `Cc1ccccc1C(=O)Nc1ccc(C(=O)N2CCCC3(CN3)c3cc(Cl)ccc32)c(C)c1` (centres unmarked) [Compound 9], for which, in data set [1] (setting [4]), the IC50 came out at 4.88 nM.

On to `O=C(Nc1ccc(C(=O)N2CCC(F)(F)C3(CN3)c3cc(Cl)ccc32)cn1)c1ccccc1C(F)(F)F` (centres unmarked) [Compound 1], for which, in data set [2] (male, CD1, mouse, iv, 1 mg/kg), the AUC0-inf amounted to 719 ng·h/mL; the clearance (in general, a measure of how efficiently the substance is removed, as volume per time) is 23.2 mL/min/kg; the half-life (in general, the time in which the quantity being followed falls by half) was 55.2 min. Also, in data set [2] (male, CD1, mouse, po, 10 mg/kg), the AUC0-inf amounted to 4060 ng·h/mL; the Cmax – broadly, the maximum level reached in the sampled fluid or tissue – was found to be 1260 ng/mL; the bioavailability – broadly, the share of a dose that reaches the circulation, judged against a reference dose that is usually intravenous – is 56%; the half-life is 36 min. The “inhibitory effect on the proliferation of LLC-PK1 cells” value in data set [3] (compared with control 1) is recorded as “stronger than that of control 1”. Also, the “pro-proliferation effect on LLC-PK1 cells” value in data set [3] is “no pro-proliferation effect”. Further, the IC50 in data set [1] amounted to 10.9 nM.

With `Cc1ccccc1C(=O)Nc1ccc(C(=O)N2CCCC(O)c3cc(Cl)ccc32)c(C)c1` (centres unmarked) [Control 1, Tofapriptan, reference compound], in data set [2] (mouse, iv, 1 mg/kg), the “AUC0-inf” value came out at 367 ng·h/mL, the “Cl” value came to 45.5 mL/min/kg and the “T1/2” value amounted to 31.8 min. Also, in data set [2] (mouse, po, 10 mg/kg), the “AUC0-inf” value is 1613 ng·h/mL, the “Cmax” value worked out at 1307 ng/mL, the “F (%)” value stood at 44% and the “T1/2” value came to 94.8 min.

As for `O=C(Nc1ccc(C(=O)N2CCCC3(CN3)c3cc(Cl)ccc32)cn1)c1ccccc1C(F)(F)F` (centres unmarked) [Compound 5], the IC50 in data set [1] (setting [4]) worked out at 4.67 nM.

`Cc1ccccc1C(=O)Nc1ccc(C(=O)N2CCCC3(CCC3)c3cc(Cl)ccc32)c(C)c1` [Compound 17]: the IC50 in data set [1] (setting [4]) stood at 10.4 nM.

On to `O=C(Nc1ccc(C(=O)N2CCC(F)(F)C3(CN3)c3cc(Cl)ccc32)cn1)c1ccccc1Cl` (centres unmarked) [Compound 21], for which, in data set [1] (setting [4]), the IC50 came to 4.51 nM.

Consider `Cc1ccccc1C(=O)Nc1ccc(C(=O)N2CCC(F)(F)C3(CN3)c3cc(Cl)ccc32)cn1` (centres unmarked) [Compound 20], for which, in data set [1] (setting [4]), the IC50 came to 5.54 nM.
